Measurements as given in PubChem BioAssay AID2060499 (Molecular Pharmacology Branch, DTP, NCI, 2025).

Tested on: 777334-354-R2-J4-PDC tumor spheroids with HUVEC/MSC, viability
Assay: Anticancer human tumor 777334-354-R2-J4-PDC patient-derived pancreatic adenocarcinoma cell line growth inhibition [GQUAD]
Settings: for IC50: curve of first compound; for viability, T/C: stronger effect = lower value
Source text: DNA G-quadruplex Stabilizer Agents in Combinations in Complex Spheroids
A high-throughput screen of multi-cell type tumor spheroids was designed to identify active combinations of DNA G-quadruplex stabilizer agents and targeted small molecules. Complex spheroids include a stromal component modeled by human endothelial cells (HUVEC) and fibroblasts modeled by human mesenchymal stem cells (MSCs). The concentration ranges selected for each drug and investigational agent were based upon clinically achievable concentrations if the clinical Cmax of the agent was known.
Compounds. The drugs and investigational agents: pidnarulex (CX-5461; NSC782164), APTO-253 (NSC789042), BRACO-19 (NSC847499), peposertib (NSC802822), ceralasertib (NSC780249), elimusertib (NSC800525), camonsertib (NSC841442), AZD-1390 (NSC803789), olaparib (NSC753686), talazoparib (NSC767125), ART-558 (NSC835418), sotorasib (NSC818433), MRTX-1133 (NSC836407), SN-38 (NSC673596), topotecan (NSC609699), etoposide (NSC141540), doxorubicin (NSC123127), gemcitabine (NSC613327), 5-fluorouracil (NSC19893), paclitaxel (NSC125973), vemurafenib (NSC761431), panobinostat (NSC761190), R-306465 (JNJ-16241199; NSC773264), adavosertib (NSC754352), TP-3654 (NSC805149), carboplatin (NSC241240), KSQ-4279 (NSC840948), and staurosporine (NSC755774) were obtained from the National Cancer Institute (NCI) Developmental Therapeutics Program Chemical Repository (34). The FDA-approved anticancer drug set is available from the NCI Developmental Therapeutics Program. […] The stock solutions were prepared in dimethyl sulfoxide (DMSO, Sigma-Aldrich, St. Louis, MO, cat. D2650) at 800-fold the tested concentration and stored at -70 degrees C prior to their use. All drugs and investigational agents were tested over a range starting from a high concentration at or near the clinical Cmax and decreasing in half-log increments. If the clinical Cmax for an agent had not been determined, the highest concentration tested was 10 microM.
2.3 Cell Culture. All cells were maintained in an incubator at 37 degrees C and 5% CO2 with 95% humidity. The PDC lines were cultured according to standard operating procedures established by the NCI PDMR. All PDCs were thawed and cultured in Matrigel-coated flasks prepared with a working solution of 1X Ham's F-12 nutrient mix, without supplementation (Invitrogen, cat. 11765054), 100 U/mL penicillin-streptomycin (Invitrogen, cat. 15140122), and 2.5% Matrigel (Corning Inc., cat. 354248) for the first three passages. The 857933-349-R-J2-PDC line was cultured in 6C/Colon 1B media, which includes advanced DMEM/F-12 (Thermo Fisher Scientific, cat. 12634028), 10 mM HEPES (Thermo Fisher Scientific, cat. 15630080), 1X GlutaMAX supplement (Thermo Fisher Scientific, cat. 35050061), 0.1 mg/mL primocin (InvivoGen, cat. ant-pm-2), 10% defined fetal bovine serum, heat inactivated (HyClone Laboratories Inc., cat. SH30070.03HI), 50% L-WRN conditioned media (ATCC, cat. CRL-3276), 1.25 mM N-Acetyl-L-cysteine (Sigma-Aldrich, cat. A9165), 10 mM nicotinamide (Sigma-Aldrich, cat. N0636), 1X B-27 supplement (Thermo Fisher Scientific, cat. 17504044), 1X N-2 supplement (Thermo Fisher Scientific, cat. 17502048), 10 microM Y-27632 dihydrochloride (Tocris Bioscience, cat. 1254), and 50 ng/mL human EGF recombinant protein (Thermo Fisher Scientific, cat. PHG0311). The 485176-168-R4-J1-PDC line was cultured in Panc media, which includes all 6C/Colon 1B media components plus 100 ng/mL human FGF-10 (Thermo Fisher Scientific, cat. 100-26), 500 nM SB-431542 (Selleckchem, cat. S1067), and gastrin (Tocris, cat. 3006).
[…]

[1] = second compound 0.0316 µM, first compound 0.0316 µM
[2] = second compound 0.0316 µM, first compound 0.316 µM
[3] = second compound 0.1 µM, first compound 0.0316 µM
[4] = second compound 0.1 µM, first compound 0.316 µM
[5] = second compound 0.316 µM, first compound 0.0316 µM
[6] = second compound 0.316 µM, first compound 0.316 µM
[7] = second compound 1 µM, first compound 0.0316 µM
[8] = second compound 1 µM, first compound 0.316 µM
[9] = second compound 3.16 µM, first compound 0.0316 µM
[10] = second compound 3.16 µM, first compound 0.316 µM
[11] = second compound 10 µM, first compound 0.0316 µM
[12] = second compound 10 µM, first compound 0.316 µM
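Further: spheroids exposed to compounds for 7 days before readout.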

Work on CCc1c2c(nc3ccc(O)cc13)-c1cc3c(c(=O)n1C2)COC(=O)[C@]3(O)CC + Cc1[nH]c2ccc(F)cc2c1-c1nc2c3cccnc3c3ncccc3c2[nH]1 yielded an IC50 (second compound 0.0316 µM) of 5.58 nM, an IC50 (second compound 0.1 µM) of 6.14 nM and an IC50 (second compound 0.316 µM) of 5.57 nM. For the same compound, the IC50 (second compound 1 µM) was 3.44 nM, the IC50 (second compound 3.16 µM) was less than 0.999 nM and the IC50 (second compound 10 µM) was less than 0.999 nM. The viability, T/C (second compound 0.0316 µM, first compound 0.000999 µM) was 85.3%, the viability, T/C (second compound 0.0316 µM, first compound 0.00316 µM) was 54.5% and the viability, T/C (second compound 0.0316 µM, first compound 0.00999 µM) was 44.7%. For the same compound, the viability, T/C [1] was 27.3%, the viability, T/C (second compound 0.0316 µM, first compound 0.0999 µM) was 15% and the viability, T/C [2] was 9.55%. It also gave a viability, T/C (second compound 0.1 µM, first compound 0.000999 µM) of 92.8%, a viability, T/C (second compound 0.1 µM, first compound 0.00316 µM) of 60.4% and a viability, T/C (second compound 0.1 µM, first compound 0.00999 µM) of 45%. The viability, T/C [3] was 22.2%, the viability, T/C (second compound 0.1 µM, first compound 0.0999 µM) was 14.7% and the viability, T/C [4] was 9.29%. For the same compound, the viability, T/C (second compound 0.316 µM, first compound 0.000999 µM) was 83.6%, the viability, T/C (second compound 0.316 µM, first compound 0.00316 µM) was 60.9% and the viability, T/C (second compound 0.316 µM, first compound 0.00999 µM) was 38.2%. The viability, T/C [5] was 26.4%, the viability, T/C (second compound 0.316 µM, first compound 0.0999 µM) was 18.1% and the viability, T/C [6] was 11.1%. The viability, T/C (second compound 1 µM, first compound 0.000999 µM) was 70.7%, the viability, T/C (second compound 1 µM, first compound 0.00316 µM) was 51.1% and the viability, T/C (second compound 1 µM, first compound 0.00999 µM) was 34.9%. For the same compound, the viability, T/C [7] was 23.9%, the viability, T/C (second compound 1 µM, first compound 0.0999 µM) was 16.9% and the viability, T/C [8] was 8.25%. The viability, T/C (second compound 3.16 µM, first compound 0.000999 µM) was 34.4%, the viability, T/C (second compound 3.16 µM, first compound 0.00316 µM) was 20.1% and the viability, T/C (second compound 3.16 µM, first compound 0.00999 µM) was 15.9%. The viability, T/C [9] was 9.11%, the viability, T/C (second compound 3.16 µM, first compound 0.0999 µM) was 7.06% and the viability, T/C [10] was 4.83%. The viability, T/C (second compound 10 µM, first compound 0.000999 µM) was 26%, the viability, T/C (second compound 10 µM, first compound 0.00316 µM) was 17.6% and the viability, T/C (second compound 10 µM, first compound 0.00999 µM) was 13.1%. It also gave a viability, T/C [11] of 7.08%, a viability, T/C (second compound 10 µM, first compound 0.0999 µM) of 6.95% and a viability, T/C [12] of 5.09%.
Compound COc1cc(C2c3cc4c(cc3C(OC3OC5COC(C)OC5C(O)C3O)C3COC(=O)C23)OCO4)cc(OC)c1O (centres undefined) + Cc1[nH]c2ccc(F)cc2c1-c1nc2c3cccnc3c3ncccc3c2[nH]1 has an IC50 (second compound 0.0316 µM) of 6310 nM, an IC50 (second compound 0.1 µM) of 7250 nM and an IC50 (second compound 0.316 µM) of 5370 nM. The IC50 (second compound 1 µM) was 3270 nM, the IC50 (second compound 3.16 µM) was less than 31.6 nM and the IC50 (second compound 10 µM) was less than 31.6 nM. It also gave a viability, T/C [1] of 95.9%, a viability, T/C (second compound 0.0316 µM, first compound 0.1 µM) of 91% and a viability, T/C [2] of 90.1%. For the same compound, the viability, T/C (second compound 0.0316 µM, first compound 1 µM) was 71.4%, the viability, T/C (second compound 0.0316 µM, first compound 3.16 µM) was 64.4% and the viability, T/C (second compound 0.0316 µM, first compound 10 µM) was 41.5%. It also gave a viability, T/C [3] of 104%, a viability, T/C (second compound 0.1 µM, first compound 0.1 µM) of 91.7% and a viability, T/C [4] of 90.2%. It also gave a viability, T/C (second compound 0.1 µM, first compound 1 µM) of 72.1%, a viability, T/C (second compound 0.1 µM, first compound 3.16 µM) of 63.4% and a viability, T/C (second compound 0.1 µM, first compound 10 µM) of 44.7%. The viability, T/C [5] was 72.8%, the viability, T/C (second compound 0.316 µM, first compound 0.1 µM) was 88.6% and the viability, T/C [6] was 84.1%. For the same compound, the viability, T/C (second compound 0.316 µM, first compound 1 µM) was 80%, the viability, T/C (second compound 0.316 µM, first compound 3.16 µM) was 58.8% and the viability, T/C (second compound 0.316 µM, first compound 10 µM) was 39.7%. The viability, T/C [7] was 89.5%, the viability, T/C (second compound 1 µM, first compound 0.1 µM) was 78.7% and the viability, T/C [8] was 73.5%. The viability, T/C (second compound 1 µM, first compound 1 µM) was 63.6%, the viability, T/C (second compound 1 µM, first compound 3.16 µM) was 54.1% and the viability, T/C (second compound 1 µM, first compound 10 µM) was 32.3%. The viability, T/C [9] was 36.6%, the viability, T/C (second compound 3.16 µM, first compound 0.1 µM) was 47.1% and the viability, T/C [10] was 33.7%. It also gave a viability, T/C (second compound 3.16 µM, first compound 1 µM) of 22.4%, a viability, T/C (second compound 3.16 µM, first compound 3.16 µM) of 22.2% and a viability, T/C (second compound 3.16 µM, first compound 10 µM) of 15.9%. The viability, T/C [11] was 32.6%, the viability, T/C (second compound 10 µM, first compound 0.1 µM) was 22.6% and the viability, T/C [12] was 27.6%. The viability, T/C (second compound 10 µM, first compound 1 µM) was 15.1%, the viability, T/C (second compound 10 µM, first compound 3.16 µM) was 16% and the viability, T/C (second compound 10 µM, first compound 10 µM) was 12%.
